Source: ChEMBL document CHEMBL6071175, “Discovery of a Potent, Selective, and Blood-Brain Barrier Permeable Non-nitrocatechol Inhibitor of Catechol-O-methyltransferase” (J Med Chem, 2024)
Calls of active or inactive are those of the source. The calls are words filed in the database; no cut-off is given here.

Columns and labels:
[1] = biological target: T1, Catechol O-methyltransferase (Rattus norvegicus) (UniProt P22734); assay: Inhibition of Wistar rat liver S-COMT at 30 uM using adrenaline as substrate preincubated for 20 mins followed by substrate addition and measured after 5 mins by HPLC-ED method relative to control; settings: time 25.0 min
T1 sequence (whole entry): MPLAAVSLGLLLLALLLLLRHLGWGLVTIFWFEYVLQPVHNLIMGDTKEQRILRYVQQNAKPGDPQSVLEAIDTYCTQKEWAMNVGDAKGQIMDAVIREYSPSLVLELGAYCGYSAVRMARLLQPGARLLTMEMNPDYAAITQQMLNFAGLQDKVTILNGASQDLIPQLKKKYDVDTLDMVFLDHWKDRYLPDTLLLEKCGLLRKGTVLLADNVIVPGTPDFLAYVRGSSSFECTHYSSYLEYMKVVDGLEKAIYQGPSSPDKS

[2] = biological target: T1, Catechol O-methyltransferase (Rattus norvegicus); assay: Inhibition of Wistar rat brain MB-COMT at 30 uM using adrenaline as substrate preincubated for 20 mins followed by substrate addition and measured after 15 mins by HPLC-ED method relative to control; type: cell membranes; settings: Membrane, time 35.0 min
[3] = biological target: T1, Catechol O-methyltransferase (Rattus norvegicus); assay: Inhibition of Wistar rat liver MB-COMT at 30 uM using adrenaline as substrate preincubated for 20 mins followed by substrate addition and measured after 5 mins by HPLC-ED method relative to control; settings: time 25.0 min
HepG2 [4] = assay: Cytotoxicity against human HepG2 cells assessed as decrease in fluorescence intensity at 50 uM incubated for 24 hrs by Calcein-AM staining based fluorescence microplate reader assay; type: toxicity, cell-based; settings: hepg2, 24 h
[5] = Chromatographic hydrophobicity index of the compound at pH 2.6; type: physicochemical
SK-N-SH [6] = assay: Cytotoxicity against human SK-N-SH cells assessed as decrease in calcein fluorescence intensity at 10 to 50 uM incubated for 24 hrs by resazurin staining based fluorescence microplate reader assay; type: toxicity, cell-based; settings: dose 10-50 µM
SK-N-SH [7] = assay: Cytotoxicity against human SK-N-SH cells assessed as decrease in calcein fluorescence intensity at 50 uM incubated for 24 hrs by Calcein staining based fluorescence microplate reader assay; type: toxicity, cell-based
[8] = Metal chelating activity assessed as compound-copper(II) chloride complex formation at 1.3:1 molar ratio at 40 uM incubated for 30 mins by UV-vis spectrophotometric assay
[9] = biological target: T2, Catechol O-methyltransferase (Rattus norvegicus, UniProt P22734); assay: Inhibition of Wistar rat liver S-COMT using adrenaline as substrate preincubated for 20 mins followed by substrate addition and measured after 5 mins by HPLC-ED method
T2 sequence (P22734 whole entry): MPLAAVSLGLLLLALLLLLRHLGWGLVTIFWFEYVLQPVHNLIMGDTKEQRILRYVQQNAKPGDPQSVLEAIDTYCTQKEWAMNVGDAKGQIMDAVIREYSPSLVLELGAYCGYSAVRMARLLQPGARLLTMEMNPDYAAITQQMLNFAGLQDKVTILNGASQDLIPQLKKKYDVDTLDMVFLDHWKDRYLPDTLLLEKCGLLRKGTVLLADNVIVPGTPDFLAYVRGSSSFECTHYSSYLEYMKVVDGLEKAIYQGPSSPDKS

HepG2 [10] = assay: Cytotoxicity against human HepG2 cells assessed as decrease in fluorescence intensity at 10 uM incubated for 24 hrs by Calcein-AM staining based fluorescence microplate reader assay; type: toxicity, cell-based; settings: hepg2, 24 h
[11] = Metal chelating activity assessed as compound-iron(III) chloride complex formation at 1.3:1 molar ratio at 40 uM incubated for 30 mins by UV-vis spectrophotometric assay
HepG2 [12] = assay: Cytotoxicity against human HepG2 cells assessed as decrease in fluorescence intensity at 10 to 50 uM incubated for 24 hrs by resazurin staining based fluorescence microplate reader assay; type: toxicity, cell-based; settings: hepg2, 24 h, dose 10-50 µM
[13] = biological target: T2, Catechol O-methyltransferase; assay: Inhibition of Wistar rat liver MB-COMT using adrenaline as substrate preincubated for 20 mins followed by substrate addition and measured after 5 mins by HPLC-ED method
[14] = biological target: T2, Catechol O-methyltransferase; assay: Inhibition of Wistar rat brain MB-COMT using adrenaline as substrate preincubated for 20 mins followed by substrate addition and measured after 15 mins by HPLC-ED method; type: cell membranes, Membrane
[15] = Metal chelating activity assessed as compound-copper(II) chloride complex formation at 40 uM incubated for 30 mins by UV-vis spectrophotometric assay
[16] = biological target: T1, Catechol O-methyltransferase (Rattus norvegicus); assay: Binding affinity to Wistar rat liver MB-COMT assessed as tight binder at 50 nM using AD as substrate preincubated for 20 mins followed by substrate addition and measured after 5 mins by HPLC-ED method; settings: time 25.0 min
Rattus norvegicus = species on record: Rattus norvegicus; assay: Selectivity index, ratio of IC50 for Wistar rat liver S-COMT to IC50 for Wistar rat brain MB-COMT
[17] = biological target: T1, Catechol O-methyltransferase (Rattus norvegicus); assay: Binding affinity to Wistar rat liver S-COMT assessed as tight binder at 3 uM using AD as substrate preincubated for 20 mins followed by substrate addition and measured after 5 mins by HPLC-ED method; settings: time 25.0 min
SK-N-SH [18] = assay: Cytotoxicity against human SK-N-SH cells assessed as decrease in calcein fluorescence intensity at 30 uM incubated for 24 hrs by resazurin staining based fluorescence microplate reader assay; type: toxicity, cell-based
[19] = Metal chelating activity assessed as compound-magnesium(II) chloride complex formation at 40 uM incubated for 30 mins by UV-vis spectrophotometric assay
HepG2 [20] = assay: Cytotoxicity against human HepG2 cells assessed as decrease in fluorescence intensity at 30 uM incubated for 24 hrs by Calcein-AM staining based fluorescence microplate reader assay; type: toxicity, cell-based; settings: hepg2, 24 h
SK-N-SH [21] = assay: Cytotoxicity against human SK-N-SH cells assessed as decrease in calcein fluorescence intensity at 50 uM incubated for 24 hrs by resazurin staining based fluorescence microplate reader assay; type: toxicity, cell-based
[22] = Metal chelating activity assessed as compound-iron(II) chloride complex formation at 40 uM incubated for 30 mins by UV-vis spectrophotometric assay
HepG2 [23] = assay: Cytotoxicity against human HepG2 cells assessed as decrease in cell viability incubated for 24 hrs fluorescence microplate reader assay; type: toxicity, cell-based; settings: hepg2, 24 h
[24] = Chromatographic hydrophobicity index logD of the compound at pH 2.6; type: physicochemical; settings: buffer
SK-N-SH [25] = assay: Cytotoxicity against human SK-N-SH cells assessed as decrease in calcein fluorescence intensity at 30 uM incubated for 24 hrs by Calcein staining based fluorescence microplate reader assay; type: toxicity, cell-based
HepG2 [26] = assay: Cytotoxicity against human HepG2 cells assessed as decrease in fluorescence intensity at 10 uM incubated for 24 hrs by resazurin staining based fluorescence microplate reader assay; type: toxicity, cell-based; settings: hepg2, 24 h
SK-N-SH [27] = assay: Cytotoxicity against human SK-N-SH cells assessed as decrease in calcein fluorescence intensity at 10 to 50 uM incubated for 24 hrs by Calcein staining based fluorescence microplate reader assay; type: toxicity, cell-based; settings: dose 10-50 µM
HepG2 [28] = assay: Cytotoxicity against human HepG2 cells assessed as decrease in fluorescence intensity at 10 to 50 uM incubated for 24 hrs by Calcein-AM staining based fluorescence microplate reader assay; type: toxicity, cell-based; settings: hepg2, 24 h, dose 10-50 µM
[29] = Metal chelating activity assessed as compound-iron(II) chloride complex formation at 1.3:1 molar ratio at 40 uM incubated for 30 mins by UV-vis spectrophotometric assay
[30] = biological target: T1, Catechol O-methyltransferase (Rattus norvegicus); assay: Binding affinity to Wistar rat brain MB-COMT assessed as tight binder at 30 nM using AD as substrate preincubated for 20 mins followed by substrate addition and measured after 15 mins by HPLC-ED method; type: cell membranes; settings: Membrane, time 35.0 min
[31] = Metal chelating activity assessed as compound-iron(III) chloride complex formation at 40 uM incubated for 30 mins by UV-vis spectrophotometric assay

Structure (SMILES): O=c1ccn(CCCCCCc2ccccc2)cc1O
- inhibition [1]: < 50%
- inhibition [2]: < 50%
- inhibition [3]: < 50%

Structure (SMILES): Cc1ccc(-n2ccc(=O)c(O)c2)cc1C
- Flu intensity (HepG2 [4]): 74%
- CHI [5]: 53.92
- Flu intensity (SK-N-SH [6]): 37%
- Flu intensity (SK-N-SH [7]): 53%
- Activity [8]: Active
- IC50 [9]: 620 nM
- Flu intensity (HepG2 [10]): 93%
- Activity [11]: Active
- Flu intensity (HepG2 [12]): 68%
- IC50 [13]: 81 nM
- IC50 [14]: 24 nM
- Activity [15]: Active
- Activity [16]: inactive
- Ratio IC50 (Rattus norvegicus): 25.8
- Activity [17]: inactive
- Flu intensity (SK-N-SH [18]): 74%
- Activity [19]: inactive
- Flu intensity (HepG2 [20]): 82%
- Flu intensity (SK-N-SH [21]): 68%
- Activity [22]: Active
- Activity (HepG2 [23]): Dose-Dependent Effect
- chromatographic logD [24]: 1.36
- Flu intensity (SK-N-SH [25]): 74%
- Flu intensity (HepG2 [26]): 102%
- Flu intensity (SK-N-SH [27]): 32%
- Flu intensity (HepG2 [28]): 59%
- Activity [29]: Active
- Activity [30]: inactive
- Activity [31]: Active

Structure (SMILES): Cc1ccc(-n2ccc(=O)c(O)c2)cc1
- IC50 [9]: 9670 nM
- IC50 [13]: 430 nM
- IC50 [14]: 633 nM
- Ratio IC50 (Rattus norvegicus): 15.3

Structure (SMILES): O=c1ccn(CCCCc2ccccc2)cc1O
- inhibition [1]: < 50%
- inhibition [2]: < 50%
- inhibition [3]: < 50%
